In patent publication US20240317718A1, “SUBSTITUTED HETEROCYCLIC COMPOUNDS” (BRISTOL-MYERS SQUIBB COMPANY, priority 2021, published 2024) one finds Papp A→B, efflux ratio and IC50 data, which are given here for 22 compounds.

A short description of one series: in vitro. As to conditions: human, Caco-2, pH 7.4.
The subject of series [1] is IFNα-induced pSTAT5 (Tyk2-mediated signal transduction). The experiment in a line: IFNα-induced STAT phosphorylation in human whole blood. The format is cell-based. As to conditions: 1 h incubation with compound, 1000 U/mL IFNα A/D for 15 min, CD3 positive population, read-out: Human Whole blood IFNa pSTAT5 IC50. On the procedure:
IFNα-Induced STAT Phosphorylation in Human Whole Blood
After an hour long incubation with compound, human whole blood (drawn with ACD-A as anticoagulant) was stimulated with 1000 U/mL recombinant human IFNα A/D (R&D Systems 11200-2) for 15 min. The stimulation was stopped by adding Fix/Lyse buffer (BD 558049). Cells were stained with a CD3 FITC antibody (BD 555916), washed, and permeabilized on ice using Perm III buffer (BD 558050). Cells were then stained with an Alexa-Fluor 647 pSTAT5 (pY694) antibody (BD 612599) for 60 min prior to analysis on the iQue Plus. The amount of pSTAT5 expression was quantitated by median fluorescence intensity after gating on the CD3 positive population.

In general, Papp A→B refers to how fast a substance crosses the layer from the apical side. A low value points to slow passage. Broadly, the efflux ratio is a quotient of directional permeabilities that is used to spot active efflux. By IC50 is commonly meant the midpoint of a concentration-inhibition curve.

For `[2H]C([2H])([2H])NC(=O)c1nnc(NC(=O)C2CC2)cc1Nc1cccc(-c2nc(C)oc2C)c1OC` [Example 18, 6-cyclopropaneamido-4-{[3-(2,5-dimethyl-1,3-oxazol-4-yl)-2-methoxyphenyl]amino}-N-(^2H3)methylpyridazine-3-carboxamide], in the series “in vitro”, the apical-to-basolateral permeability (Papp A→B) at 2 h, 3 μM came out at 25.9 ×10⁻⁶ cm/s and the efflux ratio at 2 h, 3 μM was determined as 0.7. The 50% inhibitory concentration (IC50) in series [1] came out at 152 nM.

For `[2H]C([2H])([2H])NC(=O)c1nnc(NC(=O)C2CC2)cc1Nc1cccc(-c2noc(C(F)F)n2)c1OC` [Example 19, 6-(cyclopropanecarboxamido)-4-((3-(5-(difluoromethyl)-1,2,4-oxadiazol-3-yl)-2-methoxyphenyl)amino)-N-(methyl-d3)pyridazine-3-carboxamide], in the series “in vitro”, the Papp A→B at 2 h, 3 μM turned out to be 17 ×10⁻⁶ cm/s and the efflux ratio at 2 h, 3 μM came out at 0.6. In addition, the IC50 in series [1] worked out at 69 nM.

In the case of `[2H]C([2H])([2H])NC(=O)c1nnc(NC(=O)C2CC2)cc1Nc1nccc(-c2cnc(C(C)(C)O)cn2)c1OC` [Example 20, 6-(cyclopropanecarboxamido)-4-((4-(5-(2-hydroxypropan-2-yl)pyrazin-2-yl)-3-methoxypyridin-2-yl)amino)-N-(methyl-d3)pyridazine-3-carboxamide], in “in vitro”, the apparent permeability from apical to basolateral (Papp A→B) at 2 h, 3 μM is 18.8 ×10⁻⁶ cm/s and the efflux ratio at 2 h, 3 μM is 2.9. In series [1], the IC50 worked out at 148 nM.

For `[2H]C([2H])([2H])NC(=O)c1nnc(NC(=O)C2CC2)cc1Nc1cccc(-c2csc(C)n2)c1OC` [Example 21, 6-cyclopropaneamido-4-{[2-methoxy-3-(2-methyl-1,3-thiazol-4-yl)phenyl]amino}-N-(^2H3)methylpyridazine-3-carboxamide], in “in vitro”, the Papp A→B at 2 h, 3 μM was 14.1 ×10⁻⁶ cm/s and the efflux ratio at 2 h, 3 μM came out at 0.7. In series [1], the concentration for half-maximal inhibition (IC50) turned out to be 385 nM.

Take `[2H]C([2H])([2H])NC(=O)c1nnc(NC(=O)C2CC2)cc1Nc1cccc(-c2cnc(OC)cn2)c1OC` [Example 22, 6-cyclopropaneamido-4-{[2-methoxy-3-(5-methoxypyrazin-2-yl)phenyl]amino}-N-(^2H3)methylpyridazine-3-carboxamide]: in “in vitro”, the apical-to-basolateral permeability (Papp A→B) at 2 h, 3 μM amounted to 32.3 ×10⁻⁶ cm/s and the efflux ratio at 2 h, 3 μM stood at 0.6. In series [1], the IC50 stood at 410 nM.

Take `[2H]C([2H])([2H])NC(=O)c1nnc(NC(=O)C2CC2)cc1Nc1cccc(-c2cnc(C)cn2)c1OC` [Example 23, 6-cyclopropaneamido-4-{[2-methoxy-3-(5-methylpyrazin-2-yl)phenyl]amino}-N-(^2H3)methylpyridazine-3-carboxamide]: in the series “in vitro”, the apparent permeability from apical to basolateral (Papp A→B) at 2 h, 3 μM turned out to be 17.4 ×10⁻⁶ cm/s and the efflux ratio at 2 h, 3 μM came to 1.4. For the same compound, the IC50 in series [1] is 243 nM.

`[2H]C([2H])([2H])NC(=O)c1nnc(NC(=O)C2CC2)cc1Nc1cccc(-c2ccc(C(C)(C)C#N)cn2)c1OC` [Example 24, 4-({3-[5-(1-cyano-1-methylethyl)pyridin-2-yl]-2-methoxyphenyl}amino)-6-cyclopropaneamido-N-(^2H3)methylpyridazine-3-carboxamide]: in the series “in vitro”, the Papp A→B at 2 h, 3 μM was 14.8 ×10⁻⁶ cm/s and the efflux ratio at 2 h, 3 μM came to 1.2. The IC50 in series [1] came to 426 nM.

For `[2H]C([2H])([2H])NC(=O)c1nnc(NC(=O)C2CC2)cc1Nc1ccc(F)c(-c2cnn(C)c2)c1OC` [Example 26, 6-cyclopropaneamido-4-{[4-fluoro-2-methoxy-3-(1-methyl-1H-pyrazol-4-yl)phenyl]amino}-N-(^2H3)methylpyridazine-3-carboxamide], in the series “in vitro”, the Papp A→B at 2 h, 3 μM is 30 ×10⁻⁶ cm/s and the efflux ratio at 2 h, 3 μM is 1. Besides, the IC50 in series [1] is 201 nM.

As for `[2H]C([2H])([2H])NC(=O)c1nnc(NC(=O)C2CC2)cc1Nc1cc(F)cc(-c2cnn(C)c2)c1OC` [Example 27, 6-cyclopropaneamido-4-{[5-fluoro-2-methoxy-3-(1-methyl-1H-pyrazol-4-yl)phenyl]amino}-N-(^2H3)methylpyridazine-3-carboxamide], in “in vitro”, the Papp A→B at 2 h, 3 μM came to 31.2 ×10⁻⁶ cm/s and the efflux ratio at 2 h, 3 μM was found to be 0.9. In series [1], the concentration for half-maximal inhibition (IC50) was 177 nM.

Turning to `[2H]C([2H])([2H])NC(=O)c1nnc(NC(=O)C2CC2)cc1Nc1cccc(-c2cnn(C3CC3)c2)c1OC` [Example 28, 6-cyclopropaneamido-4-{[3-(1-cyclopropyl-1H-pyrazol-4-yl)-2-methoxyphenyl]amino}-N-(^2H3)methylpyridazine-3-carboxamide], in “in vitro”, the apparent permeability from apical to basolateral (Papp A→B) at 2 h, 3 μM worked out at 27.4 ×10⁻⁶ cm/s and the efflux ratio at 2 h, 3 μM was 0.7. In series [1], the IC50 amounted to 425 nM.

Turning to `[2H]C([2H])([2H])NC(=O)c1nnc(NC(=O)C2CC2)cc1Nc1cccc(-c2cnc(C#N)cn2)c1OC` [Example 29, 4-{[3-(5-cyanopyrazin-2-yl)-2-methoxyphenyl]amino}-6-cyclopropaneamido-N-(^2H3)methylpyridazine-3-carboxamide], in the series “in vitro”, the Papp A→B at 2 h, 3 μM stood at 31.7 ×10⁻⁶ cm/s and the efflux ratio at 2 h, 3 μM was 0.5. Moreover, the IC50 in series [1] turned out to be 417 nM.

As to `[2H]C([2H])([2H])NC(=O)c1nnc(NC(=O)C2CC2)cc1Nc1nccc(-c2cnn(C3CC3)c2)c1OC` [Example 30, 6-cyclopropaneamido-4-{[4-(1-cyclopropyl-1H-pyrazol-4-yl)-3-methoxypyridin-2-yl]amino}-N-(^2H3)methylpyridazine-3-carboxamide], in the series “in vitro”, the apparent permeability from apical to basolateral (Papp A→B) at 2 h, 3 μM stood at 22.7 ×10⁻⁶ cm/s and the efflux ratio at 2 h, 3 μM turned out to be 0.5. Besides, the half-maximal inhibitory concentration (IC50) in series [1] worked out at 193 nM.

With `[2H]C([2H])([2H])NC(=O)c1nnc(NC(=O)C2CC2)cc1Nc1nccc(-c2cn(C)nc2C)c1OC` [Example 31, 6-cyclopropaneamido-4-{[4-(1,3-dimethyl-1H-pyrazol-4-yl)-3-methoxypyridin-2-yl]amino}-N-(^2H3)methylpyridazine-3-carboxamide], in the series “in vitro”, the apical-to-basolateral permeability (Papp A→B) at 2 h, 3 μM amounted to 39.3 ×10⁻⁶ cm/s and the efflux ratio at 2 h, 3 μM stood at 1. Besides, the IC50 in series [1] was 289 nM.

In the case of `[2H]C([2H])([2H])NC(=O)c1nnc(NC(=O)C2CC2)cc1Nc1nccc(-c2cnn(C)c2C)c1OC` [Example 32, 6-cyclopropaneamido-4-{[4-(1,5-dimethyl-1H-pyrazol-4-yl)-3-methoxypyridin-2-yl]amino}-N-(^2H3)methylpyridazine-3-carboxamide], in “in vitro”, the Papp A→B at 2 h, 3 μM worked out at 31.5 ×10⁻⁶ cm/s and the efflux ratio at 2 h, 3 μM is 0.9. The half-maximal inhibitory concentration (IC50) in series [1] is 437 nM.

As to `[2H]C([2H])([2H])NC(=O)c1nnc(NC(=O)C2CC2)cc1Nc1nccc(-c2nccs2)c1OC` [Example 33, 6-cyclopropaneamido-4-{[3-methoxy-4-(1,3-thiazol-2-yl)pyridin-2-yl]amino}-N-(^2H3)methylpyridazine-3-carboxamide], in “in vitro”, the Papp A→B at 2 h, 3 μM was determined as 38.3 ×10⁻⁶ cm/s and the efflux ratio at 2 h, 3 μM is 0.4. In addition, the IC50 in series [1] came to 207 nM.

For the compound `[2H]C([2H])([2H])NC(=O)c1nnc(NC(=O)C2CC2)cc1Nc1cccc(-c2ccns2)c1OC` [Example 34, 6-cyclopropaneamido-4-{[2-methoxy-3-(1,2-thiazol-5-yl)phenyl]amino}-N-(^2H3)methylpyridazine-3-carboxamide], in the series “in vitro”, the Papp A→B at 2 h, 3 μM came out at 23.3 ×10⁻⁶ cm/s and the efflux ratio at 2 h, 3 μM is 1.1. For the same compound, the IC50 in series [1] was determined as 474 nM.

As for `[2H]C([2H])([2H])NC(=O)c1nnc(NC(=O)C2CC2)cc1Nc1cccc(-c2ccsn2)c1OC` [Example 35, 6-cyclopropaneamido-4-{[2-methoxy-3-(1,2-thiazol-3-yl)phenyl]amino}-N-(^2H3)methylpyridazine-3-carboxamide], in “in vitro”, the Papp A→B at 2 h, 3 μM was 42.2 ×10⁻⁶ cm/s and the efflux ratio at 2 h, 3 μM came out at 0.5. Also, the concentration for half-maximal inhibition (IC50) in series [1] worked out at 121 nM.

On to `[2H]C([2H])([2H])NC(=O)c1nnc(NC(=O)C2CC2)cc1Nc1cccc(-c2cnsc2)c1OC` [Example 36, 6-cyclopropaneamido-4-{[2-methoxy-3-(1,2-thiazol-4-yl)phenyl]amino}-N-(^2H3)methylpyridazine-3-carboxamide], for which, in the series “in vitro”, the Papp A→B at 2 h, 3 μM was found to be 20.3 ×10⁻⁶ cm/s and the efflux ratio at 2 h, 3 μM was found to be 0.9. The IC50 in series [1] was 225 nM.

On to `[2H]C([2H])([2H])NC(=O)c1nnc(NC(=O)C2CC2)cc1Nc1cc(F)cc(-c2cocn2)c1OC` [Example 37, 6-cyclopropaneamido-4-{[5-fluoro-2-methoxy-3-(1,3-oxazol-4-yl)phenyl]amino}-N-(^2H3)methylpyridazine-3-carboxamide], for which, in the series “in vitro”, the Papp A→B at 2 h, 3 μM was determined as 35.4 ×10⁻⁶ cm/s and the efflux ratio at 2 h, 3 μM worked out at 0.4. The IC50 in series [1] was 84 nM.

As for `[2H]C([2H])([2H])NC(=O)c1nnc(NC(=O)C2CC2)cc1Nc1nccc(-c2cnsc2)c1OC` [Example 38, 6-cyclopropaneamido-4-{[3-methoxy-4-(1,2-thiazol-4-yl)pyridin-2-yl]amino}-N-(^2H3)methylpyridazine-3-carboxamide], in the series “in vitro”, the Papp A→B at 2 h, 3 μM stood at 59.5 ×10⁻⁶ cm/s and the efflux ratio at 2 h, 3 μM came to 0.5. In addition, the IC50 in series [1] was 381 nM.

With `[2H]C([2H])([2H])NC(=O)c1nnc(NC(=O)C2CC2)cc1Nc1nccc(-c2nc(C)ns2)c1OC` [Example 39, 6-cyclopropaneamido-4-{[3-methoxy-4-(3-methyl-1,2,4-thiadiazol-5-yl)pyridin-2-yl]amino}-N-(^2H3)methylpyridazine-3-carboxamide], in “in vitro”, the Papp A→B at 2 h, 3 μM turned out to be 46.3 ×10⁻⁶ cm/s and the efflux ratio at 2 h, 3 μM is 0.3. For the same compound, the IC50 in series [1] came to 159 nM.

As for `[2H]C([2H])([2H])NC(=O)c1nnc(NC(=O)[C@@H]2C[C@H]2C)cc1Nc1nccc(-c2nc(C)ns2)c1OC` [Example 40, 4-{[3-methoxy-4-(3-methyl-1,2,4-thiadiazol-5-yl)pyridin-2-yl]amino}-N-(^2H3)methyl-6-[(1R,2R)-2-methylcyclopropaneamido]pyridazine-3-carboxamide], in the series “in vitro”, the Papp A→B at 2 h, 3 μM is 12.6 ×10⁻⁶ cm/s and the efflux ratio at 2 h, 3 μM was 0.3. For the same compound, the IC50 in series [1] worked out at 179 nM.
